# Laboratory results: patent US9211310B2, “Use of a Chinese medicine composition in preparing medicaments for treating secondary prevention of myocardial infarction” (TASLY PHARMACEUTICAL GROUP CO., LTD, priority 2010, dated 2015)
# Test system: patients after acute myocardial infarction
# Assay: Life quality, Seattle Angina Questionnaire (SAQ), same clinical trial
# Type: in vivo, human
# Settings: PP; 12 months after treatment
# Source text: 3508 patients who were in accordance with the diagnostic standards of AMI for 28 days to 2 years and differentiated as Qi deficiency and blood stagnation syndrome by TCM were studied. 0.5 g Chinese medicine composition prepared by the method of EXAMPLE 1 (Coded as QSYQ) was administrated half an hour after meal, 3 times per day.
# There were 19 questions in the Seattle angina questionnaire (SAQ), including 5 parts: physical limitation (PL), anginal stability (AS), anginal frequency (AF), treatment satisfaction (TS) and disease perception (DP). After being given necessary explanation by doctors, the questions were answered independently by patients.
# They included the overall survival time, angina pectoris score, TCM symptom score and life quality score, where angina pectoris score, TCM symptom score and life quality score were evaluated at randomization, in 1st, 3rd, 6th, 9th, 12th month after treatment and 18th month after follow-up.
# All evaluation results of SAQ were described during the period of observation, and Wilcoxon rank sum test was used for inter-group comparison.
# The evaluation results in the SAQ were depicted in different observations, and inter-group comparison was tested by Wilcoxon Rank-sum test.
smiles,measurement,value
"CC(=O)Oc1ccccc1C(=O)O [Control group, aspirine]","9th question: Severe, patients (%)",(0.21%)
same,"9th question: Uneffective, patients (%)",(24.25%)
same,"10th question: Dissatisfied, patients (%)",(18.68%)
same,"10th question: Highly satisfied, patients (%)",(8.26%)
same,"10th question: Mostly dissatisfied, patients (%)",(18.61%)
same,"10th question: Mostly satisfied, patients (%)",(31.84%)
same,"10th question: Partly dissatisfied, patients (%)",(22.60%)
same,"11th question: Continuously worried, patients (%)",(1.96%)
same,"11th question: No worried, patients (%)",(7.42%)
same,"11th question: Occasionally worried, patients (%)",(40.59%)
same,"11th question: Often worried, patients (%)",(7.98%)
same,"11th question: Seldom worried, patients (%)",(42.06%)
same,"SAQ 4th question, 1-2 times per week: % of patients",(10.29%)
same,"SAQ 4th question, 1-2 times per week: number of patients",147
same,"SAQ 4th question, 1-3 times per week: % of patients",(3.36%)
same,"SAQ 4th question, 1-3 times per week: number of patients",48
same,"SAQ 4th question, <1 time per week: % of patients",(16.38%)
same,"SAQ 4th question, <1 time per week: number of patients",234
same,"SAQ 4th question, Not used: % of patients",(67.74%)
same,"SAQ 4th question, Not used: number of patients",968
same,"SAQ 4th question, ≧3 times per week: % of patients",(2.24%)
same,"SAQ 4th question, ≧3 times per week: number of patients",32
same,"SAQ 4th question, ≧4 times per day: % of patients",(0.00%)
same,"SAQ 4th question, ≧4 times per day: number of patients",0
same,"SAQ 5th question, 1-2 times per week: % of patients",(34.01%)
same,"SAQ 5th question, 1-2 times per week: number of patients",486
same,"SAQ 5th question, 1-3 times per day: % of patients",(4.13%)
same,"SAQ 5th question, 1-3 times per day: number of patients",59
same,"SAQ 5th question, <1 time per week: % of patients",(30.58%)
same,"SAQ 5th question, <1 time per week: number of patients",437
same,"SAQ 5th question, No onset: % of patients",(5.67%)
same,"SAQ 5th question, No onset: number of patients",81
same,"SAQ 5th question, ≧3 times per week: % of patients",(25.33%)
same,"SAQ 5th question, ≧3 times per week: number of patients",362
same,"SAQ 5th question, ≧4 times per day: % of patients",(0.28%)
same,"SAQ 5th question, ≧4 times per day: number of patients",4
same,"SAQ 6th question, Dissatisfied: % of patients",(0.07%)
same,"SAQ 6th question, Dissatisfied: number of patients",1
same,"SAQ 6th question, Highly satisfied: % of patients",(27.78%)
same,"SAQ 6th question, Highly satisfied: number of patients",397
same,"SAQ 6th question, Mostly dissatisfied: % of patients",(0.84%)
same,"SAQ 6th question, Mostly dissatisfied: number of patients",12
same,"SAQ 6th question, Mostly satisfied: % of patients",(61.72%)
same,"SAQ 6th question, Mostly satisfied: number of patients",882
same,"SAQ 6th question, Partly satisfied: % of patients",(9.59%)
same,"SAQ 6th question, Partly satisfied: number of patients",137
same,"SAQ 7th question, Dissatisfied: % of patients",(0.07%)
same,"SAQ 7th question, Dissatisfied: number of patients",1
same,"SAQ 7th question, Highly satisfied: % of patients",(31.25%)
same,"SAQ 7th question, Highly satisfied: number of patients",446
same,"SAQ 7th question, Mostly dissatisfied: % of patients",(0.28%)
same,"SAQ 7th question, Mostly dissatisfied: number of patients",4
same,"SAQ 7th question, Mostly satisfied: % of patients",(60.34%)
same,"SAQ 7th question, Mostly satisfied: number of patients",861
same,"SAQ 7th question, Partly satisfied: % of patients",(8.06%)
same,"SAQ 7th question, Partly satisfied: number of patients",115
same,"SAQ Question 1-1 Mildly limited, number of patients",7
same,"SAQ Question 1-1 Mildly limited, percent of patients",(0.49%)
same,"SAQ Question 1-1 Moderately limited, number of patients",1
same,"SAQ Question 1-1 Moderately limited, percent of patients",(0.07%)
same,"SAQ Question 1-1 Not limited, number of patients",1371
same,"SAQ Question 1-1 Not limited, percent of patients",(96.28%)
same,"SAQ Question 1-1 Other reasons, number of patients",4
same,"SAQ Question 1-1 Other reasons, percent of patients",(0.28%)
same,"SAQ Question 1-1 Severely limited, number of patients",0
same,"SAQ Question 1-1 Severely limited, percent of patients",(0.00%)
same,"SAQ Question 1-1 Slightly limited, number of patients",41
same,"SAQ Question 1-1 Slightly limited, percent of patients",(2.88%)
same,"SAQ Question 1-2 Mildly limited, number of patients",8
same,"SAQ Question 1-2 Mildly limited, percent of patients",(0.56%)
same,"SAQ Question 1-2 Moderately limited, number of patients",1
same,"SAQ Question 1-2 Moderately limited, percent of patients",(0.07%)
same,"SAQ Question 1-2 Not limited, number of patients",1365
same,"SAQ Question 1-2 Not limited, percent of patients",(95.79%)
same,"SAQ Question 1-2 Other reasons, number of patients",6
same,"SAQ Question 1-2 Other reasons, percent of patients",(0.42%)
same,"SAQ Question 1-2 Severely limited, number of patients",0
